# Reference: patent publication US6133313A, “Insecticidal avocadofurans and triolein” (The Regents of the University of California, priority 1998, dated 2000)
# Entries after “also recorded” stand apart in the source; their conditions may differ.
# What was measured:
# Assay type in all cases: in vivo, Spodoptera exigua
# S. exigua larvae = assay: growth inhibition and mortality of synthetic avocadofurans and triolein in diet bioassay; details: for 7-d Instar / 7-d Larval Weight: mean ± SE
# Protocol: S. exigua larvae were used in all experiments. Larvae were reared on artificial diet modified from U.S.D.A. Agric. Res. Serv., Prod. Res. Rep., 1208:1 (1969), and maintained at 28+2° C., 14:10; light:dark (L:D) photoperiod.
# The colony was collected from Orange Co., Calif. and had new genetic material added within 12 months prior to the study. The age of the cohorts tested was standardized by using neonates within 12 hours of eclosion. All bioassays were maintained at 28+2° C. 75% relative humidity (RH), and at 14:10 (L:D) photoperiod with fluorescent lighting.
# The insecticidal activity of the fractions was tested with artificial diet bioassays. Treated diets were prepared by transferring 750 μl of acetone solutions of each fraction (equivalent to 300 mg crude idioblast cell oil) into 50-ml polypropylene centrifuge tubes (Fisher, Pittsburgh Pa.), evaporating the acetone, adding 2 ml of 0.1% Tween-80 solution (Fisher), homogenizing with an ultrasonic homogenizer (Co le-Parmer, Chicago Ill.), and adding prepared diet to produce a final weight of 15 g containing the equivalent of 2% idioblast oil. The mixture was vortexed for 3 mm.
# Control diet was prepared by mixing 2 ml of Tween solution and 13 g of artificial diet to produce a final weight of 15 g. Control and treated diets were poured into 24-well (15.9 mm diameter and 15.9 mm depth) bioassay trays (C-D International Inc., Pitman N.J.). One neonate was added per well, and trays were placed in an incubator under the previously described conditions. Twenty-four neonates were tested for each fraction and control. Mortality and larval weights were recorded after 7 days.
# The effect of the synthetically produced avocado furan compounds (>95% purity) and commercially available triolein (Sigma, St. Louis, Mo.) were tested on larval growth and mortality of S exigua. Treated and control diet were prepared as previously described.
# Six different compound concentrations, chosen on the basis of studies with the oil fractions, were evaluated for both 2-(pentadecyl)furan and 2-(heptadecyl)furan: 0 (control), 600, 750, 900, 1050, and 1200 μg/g. Also, six concentrations of triolein (subfraction 1-1-12) were tested: 0 (control), 7000, 8000, 9000, 10000, and 11000 μg/g.
# Twenty-four neonates were used per treatment. Bioassays were conducted as described in Example 4, and replicated 4 times for each concentration (i.e., a total of 96 larvae were tested for each concentration). Larval weight, instar, and mortality were recorded after 7 days […].
# (§1) EC (effective concentration) values were calculated by subtracting the mean larval weight for each treatment from the mean weight of the controls, and dividing by the mean weight of the controls. LC (lethal concentration) values were obtained using probit analysis as described in Probit Analysis (1971) Cambridge University Press, Cambridge, UK. GI (growth index) and RGI (relative growth index) values were calculated as described in J. Chem. Ecol., 19:1109 (1993), but using an imax of 3 (the stage attained by most control larvae after 7 d). Statistical comparisons were conducted using SuperAnova Abacus Concept Inc., Berkeley, Calif. (1989).
# neonate S. exigua = assay: individual toxicity of avocadofurans and triolein in artificial diet; details: for LC50 (95% FL): in diet
# Protocol: In this study, individual activity of avocadofurans was investigated quantitatively. For this purpose, eight concentrations of the avocadofurans (1) and (4) and triolein (8) were tested. Results are seen in FIG. 6.
# Following pilot studies, eight concentrations of each were tested: 0, 0.5, 1, 1.5, 2, 2.5, 3, and 3.5 μmoles g^~1 diet. Also, five concentrations of triolein were tested: 0; 1,000; 2,000; 3,000; and 4,000 μg g^~1 diet. Because triolein was not compared to a structurally similar compound, a more standard dietary formulation of μg g-^1 was used rather than ^~ moles g^-1 in all triolein-treated bioassays.
# Treated and control diet were prepared as described above. For each concentration the compounds were dissolved in 10 ml of Tween solution and mixed using an ultrasonic homogenizer. Untreated diet was added to make a total of 100 g and then vortexed for 3 mm. Control diet was prepared by mixing 10 ml of the Tween solution with 90 g of artificial diet to produce a final weight of 100 g. Control and treated diets were poured into 30 ml plastic cups. One neonate was placed in each cup and cups were held in an incubator. Fifteen larvae were tested at each concentration, and assays were replicated 4 times (total of 60 larvae/treatment). For each diet treatment, 9-d larval instar and weight, pupal weights, times to pupation, and larval mortality were recorded.
# as §1
# S. exigua = assay: synergistic/joint toxicity of avocadofuran and triolein combinations
# Source text: The treatments were as follows: Control, 2-(pentadecyl)furan, 2-(heptadecyl)furan, triolein, individually, and 2-(pentadecyl)furan combined with 2-(heptadecyl)furan and triolein, 2-(pentadecyl)furan combined with triolein, and 2-(heptadecyl)furan combined with triolein. Because the combined LC25 s for both avocadofurans exceed their LC50 values, a concentration for each was adjusted so that when added it would approximate the value of the avocadofurans LC50 (see Table 2). These concentrations were used whenever both avocadofurans were combined in the same treatment. Treatments were replicated four times, with 15 larvae per replicate to a total of 60 larvae/treatment.
# Joint effects were determined by testing all combinations of LC25 s (estimated from probit lines shown in Table 1) of the three compounds for toxicity to S. exigua. The treatments were: control, 2-(pentadecyl)furan, 2-(heptadecyl)furan, triolein, 2-(pentadecyl)furan+triolein, 2-(heptadecyl)furan+triolein, and 2-(pentadecyl)furan+2-(heptadecyl)furan+triolein. Because the combined LC25 s for both avocadofurans exceeded their LC50 values (due to a steep slope of their LC lines), a concentration for each was used so that when added together it would approximate the value of the avocadofurans LC50 (Table 1). These concentrations were used whenever both avocadofurans were combined in the same treatment.
# Treatments were replicated four times, with 15 larvae per replicate (total of 60 larvae/treatment). Dietary treatment preparations and bioassay procedures were conducted as described in Example 4. For each diet treatment, 9-d larval instar and weight, pupal weights, times to pupation, and larval mortality were recorded.
# [1] = Spodoptera exigua, feed or water, 168 h
smiles,measurement,setting,value
"CCCCC/C=C\C/C=C\CCCCCCCc1ccco1 [2-(8Z,11Z-heptadecadienyl)furan]",inhibition of S. exigua growth compared to control larvae,S. exigua larvae; 1600 μg/g,54.51%
same,mortality at 1600 µg/g,"S. exigua larvae; Spodoptera exigua, feed or water, 1600 μg/g",< 5%
same,active concentration relative to the saturated compound (4),S. exigua larvae; in vivo,twice as high as the saturated compound (4)
same,comparative toxicity and growth inhibition,S. exigua larvae; in words,of much lower toxicity than 2-(heptadecyl)furan (4)
same,concentration at which S. exigua growth is inhibited / compound active,"S. exigua larvae; lowest active concentration, in diet",≥ 1600 µg/g
"CCCCCCCC/C=C\CCCCCCCC(=O)OCC(COC(=O)CCCCCCC/C=C\CCCCCCCC)OC(=O)CCCCCCC/C=C\CCCCCCCC [Triolein (8), triolein]",EC (effective concentration; weight reduction vs control),S. exigua larvae; 7000 μg/g,65.43%
same,GI (growth index),S. exigua larvae; 7000 μg/g,0.64
same,7-d Instar,S. exigua larvae; 7000 μg/g,2.35 ± 0.08
same,7-d Larval Weight,S. exigua larvae; 7000 μg/g,10.84 ± 1.42 mg
same,EC (effective concentration; weight reduction vs control),S. exigua larvae; 8000 μg/g,43.64%
same,GI (growth index),S. exigua larvae; 8000 μg/g,0.67
same,7-d Instar,S. exigua larvae; 8000 μg/g,2.70 ± 0.10
same,7-d Larval Weight,S. exigua larvae; 8000 μg/g,17.67 ± 2.05 mg
same,EC (effective concentration; weight reduction vs control),S. exigua larvae; 9000 μg/g,84.44%
same,GI (growth index),S. exigua larvae; 9000 μg/g,0.39
same,7-d Instar,S. exigua larvae; 9000 μg/g,1.91 ± 0.08
same,7-d Larval Weight,S. exigua larvae; 9000 μg/g,4.88 ± 0.65 mg
same,EC (effective concentration; weight reduction vs control),S. exigua larvae; 10000 μg/g,81.52%
same,GI (growth index),S. exigua larvae; 10000 μg/g,0.37
same,7-d Instar,S. exigua larvae; 10000 μg/g,1.87 ± 0.10
same,7-d Larval Weight,S. exigua larvae; 10000 μg/g,5.79 ± 0.96 mg
same,EC (effective concentration; weight reduction vs control),S. exigua larvae; 11000 μg/g,71.85%
same,GI (growth index),S. exigua larvae; 11000 μg/g,0.28
same,7-d Instar,S. exigua larvae; 11000 μg/g,1.95 ± 0.13
same,7-d Larval Weight,S. exigua larvae; 11000 μg/g,8.82 ± 2.22 mg
same,mortality at 7000 µg/g,S. exigua larvae; [1],18.8%
same,mortality at 8000 µg/g,S. exigua larvae; [1],26%
same,mortality at 9000 µg/g,S. exigua larvae; [1],40.6%
same,mortality at 10000 µg/g,S. exigua larvae; [1],42.7%
same,mortality at 11000 µg/g,S. exigua larvae; [1],59.4%
same,LC50 (95% FL),S. exigua larvae; in diet,10364 µg/g
same,level in artificial diet at which toxicity is exhibited,S. exigua larvae; in vivo,about 1%
same,inhibition of larval growth,S. exigua larvae; in words,significantly inhibited larval growth at relatively high concentrations
same,Relative Growth Index (RGI) vs log concentration regression (FIG. 4),S. exigua larvae; log (μg/g),"y=7.68-1.83*log(x), r^2 =0.86"
same,concentration significantly reducing larval weight and development,"S. exigua larvae; lowest concentration, in diet",≥ 7000 µg/g
same,reduction of 9-d larval weight (FIG. 6B),"neonate S. exigua; 2,000 μg g^-1 or higher",more than 35%
same,comparative toxic and inhibitory effect,neonate S. exigua; in words,inhibitory at concentrations much higher than either of the avocadofurans tested in this assay
same,effect on larval mortality (FIG. 9),neonate S. exigua; in words,increases larval mortality
same,effect on pupal weight (FIG. 7),neonate S. exigua; in words,no effect on larval developmental time and pupal weight
same,larval developmental time from neonate to pupa (FIG. 8),neonate S. exigua; in words,not significantly prolonged; also recorded: no effect on larval developmental time
same,Relative Growth Index (RGI) (FIG. 10),"neonate S. exigua; in words, increasing concentrations",decreased with increasing concentrations
same,concentration significantly reducing 9-d weight (FIG. 6B),neonate S. exigua; lowest concentration vs controls,"≥ 2,000 μg g^-1"
same,LC25 (95% FL),"neonate S. exigua; triolein, larval stage","1,900(1,304-2,339) μg g^-1 of diet"
same,LC50 (95% FL),"neonate S. exigua; triolein, larval stage, listed as Triolein","3,631(2,979-5,203) μg g^-1"
same,LC50 (95% FL),"neonate S. exigua; triolein, larval stage, listed as triolein","3,631 μg g^-1"
same,Survival to pupation,S. exigua; in vivo,83.3%
same,"Weight, 9-d larvae",S. exigua; mean ± spread,111.8 ± 10.3 mg
same,"Weight, Pupae",S. exigua; mean ± spread,116.4 ± 3.7 mg
same,Developmental times,"S. exigua; neonate-pupa, in d (unit assumed)",15.3 ± 0.4
same,Mortality (%) using LC25,"S. exigua; single substance, at estimated LC25",16.7%
